Measurements as given in US5498609A, “Benzoazepinyl compounds as oxytocin and vasopressin antagonists” (Otsuka Pharmaceutical Company, Limited, priority 1992, dated 1996).
Structures can show the parent of a compound that is named as a salt.

Legend:
V1 receptor = V1 receptor (Rattus norvegicus, UniProt P30560); assay: biochemical; settings: rat liver plasma membrane, [3H]-Arg-vasopressin, 37° C., 10 minutes, pH 8.0; read-out: IC50 in V1 receptor binding assay
Protocol: Experiment 1: V1 receptor binding assay
Using rat liver plasma membrane preparations prepared according to Ichihara's method [cf: Akira Ichihara, J. Bio. Chem., 258, 9283 (1983)], the plasma membrane (50000 dpm, 2×10^-10 M) of [^3 H]-Arg-vasopressin and a test compound (60 μg, 10^-8 to 10^-4 M) are incubated at 37° C. for 10 minutes in 100 mM Tris-HCl buffer (pH: 8.0) (250 μl) containing 5 mM MgCl2, 1 mM EDTA and 0.1% BSA. After incubation, the mixture is filtered three times using the glass filter (GF/F) so as to separate the membrane preparation binding with vasopressin and then washed with the buffer (5 ml). This glass filter is taken out and mixed with liquid scintillation cocktail. The amount of [^3 H]-vasopressin binding with the membrane is measured by liquid scintillation counter and the rate of the inhibitory effect of the test compound is estimated according to the following equation. [formula] C1 : The amount of [^3 H]-vasopressin binding with the membrane in the presence of the test compound (known amount)
(§1) C0 : The amount of [^3 H]-vasopressin binding with the membrane in the absence of the test compound
(§2) B1 : The amount of [^3 H]-vasopressin binding with the membrane in the presence of the excess amount of vasopressin (10^-6 M)
(§3) The results are expressed as IC50 value, which is the concentration of the test compound required to achieve the inhibitory effect in the rate of 50%.

V2 receptor = target: T1, V2 receptor (Rattus norvegicus, UniProt Q00788); assay: biochemical; settings: rat kidney plasma membrane, [3H]-Arg-vasopressin, 4° C., pH 8.0, read-out: IC50 in V2 receptor binding assay
T1 construct: Using rat kidney plasma membrane preparations; from tissue; host or cells: rat kidney plasma membrane
T1 sequence (Q00788 whole entry): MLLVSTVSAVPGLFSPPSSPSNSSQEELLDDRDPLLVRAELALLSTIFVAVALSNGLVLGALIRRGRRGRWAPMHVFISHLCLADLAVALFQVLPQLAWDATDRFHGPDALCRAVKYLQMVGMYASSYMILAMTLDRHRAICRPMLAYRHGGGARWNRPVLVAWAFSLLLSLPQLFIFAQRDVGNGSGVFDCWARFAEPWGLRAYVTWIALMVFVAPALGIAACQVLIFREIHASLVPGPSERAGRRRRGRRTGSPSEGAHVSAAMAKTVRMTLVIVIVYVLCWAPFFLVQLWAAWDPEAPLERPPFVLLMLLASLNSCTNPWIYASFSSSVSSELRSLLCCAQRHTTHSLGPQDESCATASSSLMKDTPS
Protocol: Experiment 2: V2 receptor binding assay
Using rat kidney plasma membrane preparations prepared according to O. Hechter's method [cf: J. Bio. Chem., 253, 3211 (1978)], the plasma membrane (100000 dpm, 4×10^-10 M) of [^3 H]-Arg-vasopressin and a test compound (0.6 mg, 10^-10 to 10^-5 M) are incubated at 4° C. for 3 hours in 100 mM Tris-HCl buffer (pH: 8.0) (250 μl) containing 5 mM MgCl2, 1 mM EDTA and 0.1% BSA. After incubation, the mixture is filtered using the glass filter (GF/F) so as to separate the membrane preparation binding with vasopressin and then washed twice with the buffer (each 5 ml). This glass filter is taken out and mixed with liquid scintillation cocktail. The amount of [^3 H]-vasopressin binding with the membrane is measured by liquid scintillation counter and the rate of the inhibitory effect of the test compound is estimated according to the following equation. [formula] C1 : The amount of [^3 H]-vasopressin binding with the membrane in the presence of the test compound (known amount)
as §1, §2, §3

V1 receptor, sequence (P30560 whole entry): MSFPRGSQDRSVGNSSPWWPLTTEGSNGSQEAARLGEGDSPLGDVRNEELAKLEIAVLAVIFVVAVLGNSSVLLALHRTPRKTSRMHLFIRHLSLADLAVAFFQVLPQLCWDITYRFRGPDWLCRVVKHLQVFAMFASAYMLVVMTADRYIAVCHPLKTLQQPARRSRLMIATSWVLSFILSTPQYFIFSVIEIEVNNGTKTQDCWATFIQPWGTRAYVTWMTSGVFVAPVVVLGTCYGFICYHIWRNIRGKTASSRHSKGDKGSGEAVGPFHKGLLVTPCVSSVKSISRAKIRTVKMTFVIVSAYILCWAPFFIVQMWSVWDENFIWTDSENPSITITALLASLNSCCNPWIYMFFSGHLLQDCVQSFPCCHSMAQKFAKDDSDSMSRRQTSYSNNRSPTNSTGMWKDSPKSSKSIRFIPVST

Row | SMILES | IC50 (V1 receptor) [nM] | IC50 (V2 receptor) [nM]
1 | CNC1CCCN(C(=O)c2ccc(NC(=O)c3ccccc3C)nc2)c2ccc(Cl)cc21 (centres unmarked) [Compound of Ex. 79] | 41 | 3.7
2 | O=C(Nc1ccc(C(=O)N2CCCC(O)c3cc(Cl)ccc32)cn1)C1CCCCC1 (centres unmarked) [Compound of Ex. 32] | 12 | 16
3 | Cc1ccccc1C(=O)Nc1ccc(C(=O)N2CCCC(OCCn3ccnc3)c3cc(Cl)ccc32)cn1 (centres unmarked) [Compound of Ex. 178] | 29 | 8
4 | Cc1ccccc1C(=O)Nc1ccc(C(=O)N2CCCC(O)c3cc(Cl)ccc32)cn1 (centres unmarked) [Compound of Ex. 25] | 14 | 4
5 | CC(=O)NCCC1CCCN(C(=O)c2ccc(NC(=O)c3ccccc3C)nc2)c2ccc(Cl)cc21 (centres unmarked) [Compound of Ex. 143, 7-chloro-5-(2-acetylamino-ethyl)-1-[6-(2-methylbenzoylamino)nicotinoyl]-2,3,4,5-tetrahydro-1H-benzazepine] | 6.6 | 3.1
6 | O=C(O)COC1CCCN(C(=O)c2ccc(NC(=O)c3ccccc3Cl)nc2)c2ccc(Cl)cc21 (centres unmarked) [Compound of Ex. 169] | 117 | 19
7 | COC1CCCN(C(=O)c2ccc(NC(=O)c3ccccc3Br)nc2)c2ccc(Cl)cc21 (centres unmarked) [Compound of Ex. 73] | 12 | 1.9
8 | Cc1ccccc1CC(=O)Nc1ccc(C(=O)N2CCCC(O)c3cc(Cl)ccc32)cn1 (centres unmarked) [Compound of Ex. 33] | 7 | 3
9 | Cc1ccccc1C(=O)Nc1ccc(C(=O)N2CCCC(OCCN3CCOCC3)c3cc(Cl)ccc32)cn1 (centres unmarked) [Compound of Ex. 182] | 28 | 10
10 | O=C(Nc1ccc(C(=O)N2CCCC(OCCNC3CCCC3)c3cc(Cl)ccc32)cn1)c1ccccc1Cl (centres unmarked) [Compound of Ex. 187] | 7.8 | 8
11 | Cc1ccccc1C(=O)Nc1ccc(C(=O)N2CCCC(OCCO)c3cc(Cl)ccc32)cn1 (centres unmarked) [Compound of Ex. 36, 7-chloro-5-(2-hydroxyethoxy)-1-[6-(2-methylbenzoylamino)nicotinoyl]-2,3,4,5-tetrahydro-1H-benzazepine] | 43 | 3
12 | CC(=O)N1CCN(CCC2CCCN(C(=O)c3ccc(NC(=O)c4ccccc4Cl)nc3)c3ccc(Cl)cc32)CC1 (centres unmarked) [Compound of Ex. 128] | 16 | 4.6
13 | Cc1ccccc1C(=O)Nc1ccc(C(=O)N2CCCC(CC(=O)N3CCN(C)CC3)c3cc(Cl)ccc32)cn1 (centres unmarked) [Compound of Ex. 42] | 30 | 3
14 | Cc1ccccc1C(=O)Nc1ccc(C(=O)N2CCCC(O)c3cc(Cl)ccc32)nc1 (centres unmarked) [Compound of Ex. 50] | 78 | 61
15 | O=C(Nc1ccc(C(=O)N2CCCC(O)c3cc(Cl)ccc32)cn1)c1ccccc1[N+](=O)[O-] (centres unmarked) [Compound of Ex. 29] | 24 | 11
16 | Cc1ccccc1C(=O)Nc1ccc(C(=O)N2CCCC(CCNC(C)C)c3cc(Cl)ccc32)cn1 (centres unmarked) [Compound of Ex. 139] | 16 | 4.1
17 | Cc1ccccc1C(=O)Nc1ccc(C(=O)N2CCCC(CCn3cncn3)c3cc(Cl)ccc32)cn1 (centres unmarked) [Compound of Ex. 140] | 31 | 5.6
18 | O=C(Nc1ccc(C(=O)N2CCCC(O)c3cc(Cl)ccc32)cn1)c1cccs1 (centres unmarked) [Compound of Ex. 31] | 57 | 120
19 | Cc1ccccc1C(=O)Nc1ccc(C(=O)N2CCN(C)Cc3cc(Cl)ccc32)cn1 [Compound of Ex. 47] | 150 | 89
20 | Cc1ccccc1C(=O)Nc1ccc(C(=O)N2CCCC(CC(=O)O)c3cc(Cl)ccc32)cn1 (centres unmarked) [Compound of Ex. 39] | 910 | 68

Row | SMILES | IC50 (V1 receptor) [nM] | IC50 (V2 receptor) [nM]
21 | CCN(CC)CCN(C)C(=O)COC1CCCN(C(=O)c2ccc(NC(=O)c3ccccc3Cl)nc2)c2ccc(Cl)cc21 (centres unmarked) [Compound of Ex. 175] | 8.4 | 2.7
22 | CC(=O)NCCOC1CCCN(C(=O)c2ccc(NC(=O)c3ccccc3C)nc2)c2ccc(Cl)cc21 (centres unmarked) [Compound of Ex. 38, 7-chloro-5-(2-acetylaminoethoxy)-1-[6-(2-methylbenzoylamino)nicotinoyl]-2,3,4,5-tetrahydro-1H-benzazepine] | 26 | 3
23 | Cc1cccc(C(=O)Nc2ccc(C(=O)N3CCCC(O)c4cc(Cl)ccc43)cn2)c1 (centres unmarked) [Compound of Ex. 26] | 78 | 21
24 | CC(=O)N1CCN(CCOC2CCCN(C(=O)c3ccc(NC(=O)c4ccccc4Cl)nc3)c3ccc(Cl)cc32)CC1 (centres unmarked) [Compound of Ex. 181] | 15 | 4.4
25 | O=C(Nc1ccc(C(=O)N2CCCC(NC3CC3)c3cc(Cl)ccc32)cn1)c1ccccc1Cl (centres unmarked) [Compound of Ex. 78] | 17 | 10
26 | Cc1ccccc1C(=O)Nc1cnc(C(=O)N2CCCC(O)c3cc(Cl)ccc32)s1 (centres unmarked) [Compound of Ex. 49] | 41 | 250
27 | NC(=O)COC1CCCN(C(=O)c2ccc(NC(=O)c3ccccc3Cl)nc2)c2ccc(Cl)cc21 (centres unmarked) [Compound of Ex. 171] | 7.1 | 3.1
28 | CN1CCCN(C(=O)c2ccc(NC(=O)c3ccccc3Cl)nc2)c2ccc(Cl)cc21 [Compound of Ex. 53] | 55 | 19
29 | Cc1ccccc1C(=O)Nc1ccc(C(=O)N2CCCC(OCC(=O)N3CCN(C)CC3)c3cc(Cl)ccc32)cn1 (centres unmarked) [Compound of Ex. 35] | 20 | 7
30 | CN(C)C(=O)COC1CCCN(C(=O)c2ccc(NC(=O)c3ccccc3Cl)nc2)c2ccc(Cl)cc21 (centres unmarked) [Compound of Ex. 173] | 24 | 5.3
31 | CCN(CC)CCN(C)C(=O)CC1CCCN(C(=O)c2ccc(NC(=O)c3ccccc3C)nc2)c2ccc(Cl)cc21 (centres unmarked) [Compound of Ex. 105] | 9 | 3
32 | COc1ccccc1C(=O)Nc1ccc(C(=O)N2CCCC(O)c3cc(Cl)ccc32)cn1 (centres unmarked) [Compound of Ex. 28] | 77 | 170
33 | Cc1ccccc1C(=O)Nc1ccc(C(=O)N2CCC(O)Cc3cc(Cl)ccc32)cn1 (centres unmarked) [Compound of Ex. 148] | 27 | 17
34 | O=C(Nc1ccc(C(=O)N2CCCC(CC(=O)N3CCNCC3)c3cc(Cl)ccc32)cn1)c1ccccc1Cl (centres unmarked) [Compound of Ex. 116, 7-chloro-5-(1-piperazinyl)carboxymethyl-1-[6-(2-chlorobenzoylamino)nicotinoyl]-2,3,4,5-tetrahydro-1H-benzazepine] | 12 | 3.1
35 | Cc1ccccc1C(=O)Nc1ccc(C(=O)N2CCCC(CC(=O)N(C)C)c3cc(Cl)ccc32)cn1 (centres unmarked) [Compound of Ex. 41] | 22 | 4
36 | Cc1ccccc1C(=O)Nc1ccc(C(=O)N2CCCC(O)(CO)c3cc(Cl)ccc32)cn1 (centres unmarked) [Compound of Ex. 34] | 66 | 16
37 | Cc1ccccc1C(=O)Nc1ccc(C(=O)N2CCCC(OC(=O)CN(C)C)c3cc(Cl)ccc32)cn1 (centres unmarked) [Compound of Ex. 189] | 34 | 12
38 | CN(C)CCOc1ccccc1C(=O)Nc1ccc(C(=O)N2CCCCc3cc(Cl)ccc32)cn1 [Compound of Ex. 96, 7-chloro-1-{6-[2-(2-dimethylaminoethoxy)benzoyl-amino]nicotinoyl}-2,3,4,5-tetrahydro-1H-benzazepine dihydrochloride] | 43 | 300
39 | O=C(Nc1ccc(C(=O)N2CCCC(CCn3ccnc3)c3cc(Cl)ccc32)cn1)c1ccccc1Cl (centres unmarked) [Compound of Ex. 129] | 31 | 4.8
40 | Cc1ccccc1C(=O)Nc1ccc(C(=O)N2CCCC(O)c3cc(Cl)ccc32)s1 (centres unmarked) [Compound of Ex. 48] | 67 | 300
